Laboratory results published in PubChem BioAssay AID1017 (Sanford-Burnham Center for Chemical Genomics, 2008).
pIC50: −log10 of the molar value. “And” between values parts separate entries of the source, which are not always exact repeats. Equal entries are not always repeated.

Biological target: Intestinal-type alkaline phosphatase (Homo sapiens) (UniProt P09923)
Test: inhibition of intestinal alkaline phosphatase – biochemical, luminescence, dose response (AID 1017)
Details: purified human IAP, luminescent substrate

Chain of Intestinal-type alkaline phosphatase (Homo sapiens) (P09923 whole entry, looked up): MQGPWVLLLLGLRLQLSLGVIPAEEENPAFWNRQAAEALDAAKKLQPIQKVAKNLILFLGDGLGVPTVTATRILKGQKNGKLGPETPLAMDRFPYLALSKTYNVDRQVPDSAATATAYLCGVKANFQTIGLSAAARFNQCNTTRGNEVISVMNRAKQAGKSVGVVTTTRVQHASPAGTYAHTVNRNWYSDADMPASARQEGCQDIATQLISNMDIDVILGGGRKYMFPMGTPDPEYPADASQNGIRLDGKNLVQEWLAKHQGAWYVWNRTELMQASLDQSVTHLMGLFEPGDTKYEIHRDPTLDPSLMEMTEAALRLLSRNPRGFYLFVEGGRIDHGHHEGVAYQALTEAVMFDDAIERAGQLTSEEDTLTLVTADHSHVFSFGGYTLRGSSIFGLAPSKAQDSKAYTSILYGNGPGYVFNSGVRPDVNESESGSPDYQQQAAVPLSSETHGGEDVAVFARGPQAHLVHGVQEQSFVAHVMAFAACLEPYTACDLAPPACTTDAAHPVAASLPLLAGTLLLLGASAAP

pIC50 | Structure (SMILES)
6.96 and 6.80 | O=C1C2CC=CCC2C(=O)N1c1n[nH]c(-c2ccccc2)n1 (stereo not drawn)
6.27 and 6.04 | O=C1C2CC=CCC2C(=O)N1c1n[nH]c(Cc2ccccc2)n1 (stereo not drawn)
5.00 | Oc1ccc(CCN=Cc2c(O)[nH]c3ccccc23)cc1O
